For data set [1], the system named is Platelet. The experiment in a line: Anti-platelet aggregation activity in Sprague-Dawley rat platelet rich plasma assessed as inhibition of AA-induced aggregation preincubated with compound followed by AA addition measured after 5 mins by two channel chronology aggregometry. Type of data set: functional, cell-based.
Data set [2] has as its system Rattus norvegicus. The experiment in a line: Antithrombotic activity in Wistar rat model assessed as thrombus weight at 1 nmol/kg, po by polyethylene tube based method. Type of data set: functional.
The nature of data set [3]: Anti-platelet aggregation activity in Sprague-Dawley rat platelet rich plasma assessed as inhibition of TH-induced aggregation preincubated with compound followed by TH addition measured after 5 mins by two channel chronology aggregometry. Type of data set: functional, cell-based.
In data set [4] the test system is Platelet. The experiment in a line: Anti-platelet aggregation activity in Sprague-Dawley rat platelet rich plasma assessed as inhibition of ADP-induced aggregation preincubated with compound followed by ADP addition measured after 5 mins by two channel chronology aggregometry. The class given is functional, cell-based.
Data set [5] deals with Platelet. The data set is described as follows: Anti-platelet aggregation activity in Sprague-Dawley rat platelet rich plasma assessed as inhibition of PAF-induced aggregation preincubated with compound followed by PAF addition measured after 5 mins by two channel chronology aggregometry. The class given is functional, cell-based.
Data set [6] in a line: Cytotoxicity activity against human NHDF cells assessed as cell growth inhibition incubated for 48 hrs by CCK-8 assay. Type of data set: toxicity, cell-based.
The nature of data set [7]: Toxicity in rat thrombosis model assessed as bleeding in inferior cavity at 0.001 to 1 nmol/kg, po. The settings on record: in vivo, dose 0.001-1 nmol/kg.
Data set [8] is described as follows: Cytotoxicity activity against human NCM460 cells assessed as cell growth inhibition incubated for 48 hrs by CCK-8 assay. Type of data set: toxicity, cell-based. (In general: Formazan colour is commonly taken as a measure of viable cells.)
The nature of data set [9]: Toxicity in rat thrombosis model assessed as bleeding in thoracic cavity at 0.001 to 1 nmol/kg, po. The settings on record: in vivo, dose 0.001-1 nmol/kg.
Data set [10] is described as follows: Toxicity in rat thrombosis model assessed as bleeding in brain at 0.001 to 1 nmol/kg, po. Type of data set: tissue-based. As to conditions: in vivo, dose 0.001-1 nmol/kg.
A short description of data set [11]: Cytotoxicity activity against human L02 cells assessed as cell growth inhibition incubated for 48 hrs by CCK-8 assay. The class given is toxicity, cell-based.
For data set [12], the system named is Rattus norvegicus. The data set is described as follows: Anti-arterial thrombosis activity in po dosed male Wister rat thrombogenesis model assessed as thrombus weight by polyethylene tube based method. The class given is functional, organism-based. The settings on record: dose 0.001-1 nmol/kg.
A short description of data set [13]: Toxicity in rat thrombosis model assessed as change in tail bleeding time at 0.01 nmol/kg, po by tail bleeding time assay. The class given is organism-based. The settings on record: in vivo.
Data set [14] can be described thus: Toxicity in rat thrombosis model assessed as change in tail bleeding time at 1 nmol/kg, po by tail bleeding time assay. The class given is organism-based. The settings on record: in vivo.
The nature of data set [15]: Toxicity in rat thrombosis model assessed as change in tail bleeding time at 0.001 nmol/kg, po by tail bleeding time assay. The class given is organism-based. The settings on record: in vivo.
For data set [16], the system named is Rattus norvegicus. The data set is described as follows: Antithrombotic activity in Wistar rat model assessed as thrombus weight at 10 nmol/kg, po by polyethylene tube based method. The class given is functional.

The source made the active and inactive calls. The calls are words filed in the database; no cut-off is given here.

One may read the IC50 as the midpoint of a concentration-inhibition curve.

Regarding `COC(=O)c1cc([C@H]2N[C@H](C(=O)N[C@@H](CC(=O)O)C(=O)O)Cc3c2[nH]c2ccccc32)ccc1O`, the inhibition entry in the data set on Platelet [1], with Platelet [4] and in the data set on Platelet [5] was “inactive” each time. The Activity in the data set on Rattus norvegicus [2] is 23.69 mg. Moreover, in [3], the IC50 is 1750 nM.

With `COC(=O)c1cc([C@H]2N[C@H](C(=O)N[C@@H](CCCNC(=N)N)C(=O)O)Cc3c2[nH]c2ccccc32)ccc1O`, the inhibition result in the data set with Platelet [1], in the data set on Platelet [4] and with Platelet [5] was “inactive” each time. In the data set with Rattus norvegicus [2], the Activity is reported as 21.66 mg. Further, the IC50 in data set [3] was 230 nM.

As for `COC(=O)c1cc([C@H]2N[C@H](C(=O)N[C@@H](CC(N)=O)C(=O)O)Cc3c2[nH]c2ccccc32)ccc1O`, the concentration for half-maximal inhibition (IC50) at 48 h in data set [6], in [8] and in [11] was greater than 125000 nM each time. For the same compound, the inhibition result in the data set with Platelet [1], with Platelet [4] and in the data set on Platelet [5] was “inactive” in each case. Besides, the Activity result in [7] is “Non-Toxic”; in the data set on Rattus norvegicus [2], 19.19 mg; in data set [9], “Non-Toxic”; in [10], “Non-Toxic”; in the data set with Rattus norvegicus [12] it was “Dose-Dependent Effect”; in data set [13] it was “Non-Toxic”. The Activity result in data set [14] and in data set [15] was “Non-Toxic” each time. For the same compound, in data set [3], the IC50 was 70 nM.

As for `COC(=O)c1cc([C@H]2N[C@H](C(=O)N[C@@H](CCC(=O)O)C(=O)O)Cc3c2[nH]c2ccccc32)ccc1O`, the inhibition result in the data set on Platelet [1], in the data set on Platelet [4] and in the data set with Platelet [5] was “inactive” each time. In addition, the Activity in the data set on Rattus norvegicus [2] came to 23.69 mg. The IC50 in data set [3] is 1750 nM.

Take `COC(=O)c1cc([C@H]2N[C@H](C(=O)N[C@@H](CCC(N)=O)C(=O)O)Cc3c2[nH]c2ccccc32)ccc1O`: the inhibition result with Platelet [1], in the data set with Platelet [4] and with Platelet [5] was “inactive” each time. The Activity with Rattus norvegicus [2] is 21.66 mg. For the same compound, the IC50 in data set [3] amounted to 230 nM.

For `COC(=O)c1cc([C@H]2N[C@H](C(=O)N[C@H](C(=O)O)C(C)C)Cc3c2[nH]c2ccccc32)ccc1O`, the inhibition result with Platelet [1], with Platelet [4] and in the data set with Platelet [5] was “inactive” each time. Also, in the data set on Rattus norvegicus [2], the Activity stood at 23.69 mg. Besides, in data set [3], the IC50 worked out at 230 nM.

Regarding `COC(=O)c1cc([C@H]2N[C@H](C(=O)NCC(=O)O)Cc3c2[nH]c2ccccc32)ccc1O`, the inhibition result with Platelet [1], in the data set on Platelet [4] and with Platelet [5] was “inactive” in each case. The Activity with Rattus norvegicus [2] came out at 23.69 mg. The IC50 in data set [3] was found to be 1750 nM.

In the case of `COC(=O)c1cc([C@H]2N[C@H](C(=O)N[C@@H](Cc3ccccc3)C(=O)O)Cc3c2[nH]c2ccccc32)ccc1O`, the inhibition result with Platelet [1], in the data set on Platelet [4] and in the data set with Platelet [5] was “inactive” throughout. Also, the Activity in the data set with Rattus norvegicus [2] turned out to be 23.69 mg. In [3], the IC50 was determined as 1750 nM.

On to `COC(=O)c1cc([C@H]2N[C@H](C(=O)N[C@@H](Cc3c[nH]c4ccccc34)C(=O)O)Cc3c2[nH]c2ccccc32)ccc1O`, for which the inhibition entry in the data set with Platelet [1], with Platelet [4] and in the data set with Platelet [5] was “inactive” throughout. In the data set on Rattus norvegicus [2], the Activity is on record as 21.66 mg. Also, the IC50 in data set [3] came to 230 nM.

Turning to `COC(=O)c1cc([C@H]2N[C@H](C(=O)N[C@@H](CC(C)C)C(=O)O)Cc3c2[nH]c2ccccc32)ccc1O`, the inhibition result in the data set on Platelet [1], in the data set on Platelet [4] and in the data set on Platelet [5] was “inactive” each time. In addition, in the data set on Rattus norvegicus [2], the Activity was 23.69 mg. In addition, in data set [3], the half-inhibitory concentration (IC50) came to 1750 nM.

Turning to `COC(=O)c1cc([C@H]2N[C@H](C(=O)N[C@@H](Cc3ccc(O)cc3)C(=O)O)Cc3c2[nH]c2ccccc32)ccc1O`, the inhibition entry in the data set on Platelet [1], with Platelet [4] and with Platelet [5] was “inactive” throughout. Moreover, in the data set with Rattus norvegicus [2], the Activity worked out at 19.19 mg. In addition, the IC50 in data set [3] is 70 nM.

As for `COC(=O)c1cc([C@H]2N[C@H](C(=O)N[C@@H](CO)C(=O)O)Cc3c2[nH]c2ccccc32)ccc1O`, the inhibition entry with Platelet [1], in the data set with Platelet [4] and in the data set on Platelet [5] was “inactive” each time. Moreover, the Activity with Rattus norvegicus [2] came to 19.19 mg. Further, the IC50 in [3] was 70 nM.

Turning to `COC(=O)c1cc([C@H]2N[C@H](C(=O)N[C@@H](CCCCN)C(=O)O)Cc3c2[nH]c2ccccc32)ccc1O`, the inhibition result in the data set on Platelet [1], in the data set on Platelet [4] and in the data set on Platelet [5] was “inactive” throughout. For the same compound, in the data set on Rattus norvegicus [2], the Activity is 19.19 mg. For the same compound, the IC50 in data set [3] was determined as 70 nM.

As for `COC(=O)c1cc([C@H]2N[C@H](C(=O)O)Cc3c2[nH]c2ccccc32)ccc1O`, the Activity in the data set with Rattus norvegicus [16] came out at 23.17 mg.

As for `CC[C@H](C)[C@H](NC(=O)[C@@H]1Cc2c([nH]c3ccccc23)[C@@H](c2ccc(O)c(C(=O)OC)c2)N1)C(=O)O`, the inhibition result in the data set on Platelet [1], in the data set with Platelet [4] and in the data set on Platelet [5] was “inactive” each time. For the same compound, the Activity with Rattus norvegicus [2] is reported as 21.66 mg. Besides, in data set [3], the IC50 turned out to be 230 nM.

Turning to `COC(=O)c1cc([C@H]2N[C@H](C(=O)N[C@@H](C)C(=O)O)Cc3c2[nH]c2ccccc32)ccc1O`, the inhibition entry in the data set on Platelet [1], in the data set on Platelet [4] and in the data set with Platelet [5] was “inactive” throughout. Besides, in the data set with Rattus norvegicus [2], the Activity is 21.66 mg. Further, the IC50 in [3] stood at 230 nM.

With `COC(=O)c1cc([C@H]2N[C@H](C(=O)N[C@H](C(=O)O)[C@@H](C)O)Cc3c2[nH]c2ccccc32)ccc1O`, the inhibition result with Platelet [1], in the data set on Platelet [4] and with Platelet [5] was “inactive” each time. In addition, in the data set with Rattus norvegicus [2], the Activity stood at 23.69 mg. The IC50 in data set [3] worked out at 1750 nM.
